In patent publication US10414811B2, “Protease-resistant lipidated GLP-1 analogs” (MEDIMMUNE LIMITED, priority 2015, dated 2019):
Read-outs that look alike come from different tables or passages of the source. Blank lines part the entries; values can stand above or below the molecule they belong to. Numbered stars: 1 amine (or outer) side, 2 acyl side, 3 side chain; on linkers, the order of the positions; unused ones are H or OH. Square brackets hold non-standard residues; d marks the D form. Side chains are listed from the residue outwards. Peptide text beside a SMILES is read from it. * marks the point of attachment. γGlu = O=C(O)[C@H](CCC(=O)[*:2])N[*:1]; Palmitoyl = CCCCCCCCCCCCCCCC(=O)*; αMeF = C[C@](N)(Cc1ccccc1)C(=O)O; αMeK = C[C@](N)(CCCCN)C(=O)O; Lauroyl = CCCCCCCCCCCC(=O)*; αMeS = C[C@](N)(CO)C(=O)O; AEEA = NCCOCCOCC(=O)O; Aib = CC(C)(N)C(=O)O

Experiments:
[1] = target: T1, human glucose-dependent insulinotropic peptide receptor (GIPR) (Homo sapiens, UniProt P48546); assay: cAMP assay, human GIPR cells; format: cell-based; details: cAMP assay
T1 construct: expressed in transfected cells
T1 sequence (P48546 22-466): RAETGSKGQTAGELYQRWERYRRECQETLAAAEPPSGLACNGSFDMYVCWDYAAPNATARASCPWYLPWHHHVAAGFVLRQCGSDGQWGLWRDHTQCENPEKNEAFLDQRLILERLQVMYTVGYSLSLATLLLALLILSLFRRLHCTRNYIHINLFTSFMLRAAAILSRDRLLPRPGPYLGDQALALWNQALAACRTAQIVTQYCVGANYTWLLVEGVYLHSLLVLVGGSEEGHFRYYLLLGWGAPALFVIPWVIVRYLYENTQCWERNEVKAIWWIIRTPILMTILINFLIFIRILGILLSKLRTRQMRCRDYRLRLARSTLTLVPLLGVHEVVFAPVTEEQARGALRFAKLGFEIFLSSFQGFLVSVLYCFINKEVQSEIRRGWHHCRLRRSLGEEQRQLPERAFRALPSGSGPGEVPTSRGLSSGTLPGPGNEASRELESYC
Outline: (§1)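 Peptide-stimulated cAMP measured by two-step HTRF after a 30 min room-temperature incubation with receptor-expressing cells (hGLP-1R, hGIPR at 1×10^5 cells/ml; hGCGR at 2×10^5 cells/ml). Duplicate dilutions; EC50 from 4-parameter logistic fit of % Delta F.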

[2] = target: T2, human glucagon receptor (GCGR) (Homo sapiens, UniProt P47871); assay: cAMP assay, human GCGR cells; format: cell-based; details: cAMP assay
T2 construct: expressed in transfected cells
T2 sequence (P47871 26-477): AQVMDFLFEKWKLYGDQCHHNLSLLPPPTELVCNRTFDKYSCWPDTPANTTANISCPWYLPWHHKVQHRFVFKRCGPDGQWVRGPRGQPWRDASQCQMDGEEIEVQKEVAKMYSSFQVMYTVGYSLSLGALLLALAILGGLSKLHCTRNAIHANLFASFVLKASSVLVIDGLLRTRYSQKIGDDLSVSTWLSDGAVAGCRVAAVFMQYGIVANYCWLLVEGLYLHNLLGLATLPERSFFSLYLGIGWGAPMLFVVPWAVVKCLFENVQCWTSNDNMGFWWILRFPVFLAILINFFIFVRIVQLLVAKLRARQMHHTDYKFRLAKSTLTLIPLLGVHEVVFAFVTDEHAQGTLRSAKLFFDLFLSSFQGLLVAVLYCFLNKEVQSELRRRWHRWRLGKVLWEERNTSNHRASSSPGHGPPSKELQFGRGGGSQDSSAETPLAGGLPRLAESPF
Outline: as §1

[3] = target: T3, Neprilysin (Homo sapiens, UniProt P08473); assay: Proteolytic resistance to neprilysin (% remaining peptide, RP-HPLC AUC); format: in vitro ADME; details: 37° C., pH 8.3
T3 construct: purchased R&D Systems 1182-ZNC-010
T3 sequence (P08473 whole entry): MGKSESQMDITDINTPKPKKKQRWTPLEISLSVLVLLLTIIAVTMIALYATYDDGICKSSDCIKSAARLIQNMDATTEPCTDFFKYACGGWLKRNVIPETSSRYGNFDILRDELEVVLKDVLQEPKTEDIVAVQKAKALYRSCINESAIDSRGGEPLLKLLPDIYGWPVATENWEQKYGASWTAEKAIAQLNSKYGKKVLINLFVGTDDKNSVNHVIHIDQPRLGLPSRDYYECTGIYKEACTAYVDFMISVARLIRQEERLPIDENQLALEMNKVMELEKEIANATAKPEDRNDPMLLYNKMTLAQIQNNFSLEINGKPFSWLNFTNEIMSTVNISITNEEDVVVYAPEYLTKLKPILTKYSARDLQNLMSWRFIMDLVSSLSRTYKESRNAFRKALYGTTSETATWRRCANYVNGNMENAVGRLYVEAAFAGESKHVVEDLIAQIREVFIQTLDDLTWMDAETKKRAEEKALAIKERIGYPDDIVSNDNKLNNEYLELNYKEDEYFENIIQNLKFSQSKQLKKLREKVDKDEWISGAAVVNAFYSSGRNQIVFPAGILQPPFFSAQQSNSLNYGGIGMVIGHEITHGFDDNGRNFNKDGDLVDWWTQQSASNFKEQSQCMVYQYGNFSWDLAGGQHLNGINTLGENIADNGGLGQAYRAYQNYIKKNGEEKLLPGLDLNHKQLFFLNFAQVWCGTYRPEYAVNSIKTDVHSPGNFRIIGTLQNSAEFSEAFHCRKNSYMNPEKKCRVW
Procedure: Ratio enzyme (units):peptide (μmoles)˜1:33. […] Ratio enzyme (units):peptide (μmoles)˜1:2.5.
15 μL aliquots (˜15 μg initial peptide) of the peptide-enzyme mixture were periodically withdrawn (t=0, 30 mins, 1 hr, 2 hr, 4 hr, 8 hr, 24 hr) and quenched immediately by addition to an equal volume (15 μL) of 5% TFA (v/v) in 1:1 water/acetonitrile to arrest proteolytic activity. 20 μL aliquots (˜10 μg initial peptide) were analyzed by LC/MS and/or analytical RP-HPLC as follows: LC/MS method: Agilent Polaris C8-A column (4.6×100 mm, 3 micron) eluted with a linear binary gradient of 10-90% MeCN (0.1% TFA v/v) in water (0.1% TFA v/v) over 30 mins at 1.5 mL min-1 at ambient temperature with detection by both UV absorption at 210 nm and ionization using a Waters 3100 mass detector (ESI+ mode). Peptide fragments deriving from enzymatic hydrolysis were identified by molecular weight, allowing location of the site of cleavage. Analytical RP-HPLC method: Agilent Polaris C8-A column (4.6×100 mm, 3 micron) eluted with a linear binary gradient of 10-90% MeCN (0.1% TFA v/v) in water (0.1% TFA v/v) over either 10 or 15 mins at 1.5 mL min^−1 at 40° C. with detection by UV absorption at 210 nm. Manual integration (AUC) allowed estimation of remaining intact peptide over the time course of the experiment.
25 μL aliquots (˜6 μg initial peptide) were analyzed by LC/MS and/or analytical RP-HPLC as follows: LC/MS method: Agilent Polaris C8-A column (4.6×100 mm, 3 micron) eluted with a linear binary gradient of 10-90% MeCN (0.1% TFA v/v) in water (0.1% TFA v/v) over 30 mins at 1.5 mL min^−1 at ambient temperature with detection by both UV absorption at 210 nm and ionization using a Waters 3100 mass detector (ESP mode). Peptide fragments deriving from enzymatic hydrolysis were identified by molecular weight, allowing location of the site of cleavage. Analytical RP-HPLC method: Agilent Polaris C8-A column (4.6×100 mm, 3 micron) eluted with a linear binary gradient of 10-90% MeCN (0.1% TFA v/v) in water (0.1% TFA v/v) over either 10 or 15 mins at 1.5 mL min^−1 at 40° C. with detection by UV absorption at 210 nm. Manual integration (AUC) allowed estimation of remaining intact peptide over the time course of the experiment.

[4] = target: T4, GLP-1R (INS1e assay) (Rattus norvegicus, UniProt P32301); assay: INS1e assay, cAMP activity at GLP-1R; format: cell-based
T4 construct: endogenous in cells; host or cells: INS-1E cells
T4 sequence (P32301 22-463): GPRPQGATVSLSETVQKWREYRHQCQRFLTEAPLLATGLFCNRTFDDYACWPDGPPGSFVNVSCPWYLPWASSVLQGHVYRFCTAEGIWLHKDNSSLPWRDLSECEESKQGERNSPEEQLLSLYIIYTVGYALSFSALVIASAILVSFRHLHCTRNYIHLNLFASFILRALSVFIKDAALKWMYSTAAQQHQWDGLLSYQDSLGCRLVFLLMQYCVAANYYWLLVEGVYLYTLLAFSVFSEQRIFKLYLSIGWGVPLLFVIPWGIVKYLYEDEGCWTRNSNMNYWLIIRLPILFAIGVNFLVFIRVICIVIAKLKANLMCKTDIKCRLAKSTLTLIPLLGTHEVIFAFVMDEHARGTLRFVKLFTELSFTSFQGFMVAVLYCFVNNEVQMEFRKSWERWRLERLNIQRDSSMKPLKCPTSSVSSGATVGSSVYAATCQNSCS
Outline: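 It pairs cAMP-d2 acceptor with anti-cAMP cryptate donor, both prepared 1/20 in conjugate/lysis buffer, applied as a two-step protocol.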

[5] = target: T5, trypsin (Sus scrofa, UniProt P00761); assay: Proteolytic resistance to trypsin (% remaining intact peptide, RP-HPLC AUC); format: in vitro ADME; details: pig, porcine pancreatic trypsin, 37° C., pH 7.8, read-out: Percentage remaining intact peptide (AUC by RP-HPLC) upon incubation with trypsin
T5 construct: purchased Sigma T7409
T5 sequence (P00761 9-231): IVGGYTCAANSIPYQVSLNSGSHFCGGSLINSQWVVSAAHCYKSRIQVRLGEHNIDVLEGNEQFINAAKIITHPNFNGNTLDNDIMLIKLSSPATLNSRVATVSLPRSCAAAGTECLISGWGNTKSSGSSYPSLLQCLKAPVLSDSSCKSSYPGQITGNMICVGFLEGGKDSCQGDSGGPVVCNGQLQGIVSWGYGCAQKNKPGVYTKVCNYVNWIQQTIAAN
Source text: Ratio enzyme (units):peptide (μmoles)˜1:11. […] Ratio enzyme (units):peptide (μmoles)˜1.2:1.

[6] = target: T6, human GLP-1 receptor (GLP-1R) (Homo sapiens, UniProt P43220); assay: cAMP assay, human GLP-1R cells; format: cell-based; details: bis-lipidated peptides
T6 construct: expressed in transfected cells
T6 sequence (P43220 24-463): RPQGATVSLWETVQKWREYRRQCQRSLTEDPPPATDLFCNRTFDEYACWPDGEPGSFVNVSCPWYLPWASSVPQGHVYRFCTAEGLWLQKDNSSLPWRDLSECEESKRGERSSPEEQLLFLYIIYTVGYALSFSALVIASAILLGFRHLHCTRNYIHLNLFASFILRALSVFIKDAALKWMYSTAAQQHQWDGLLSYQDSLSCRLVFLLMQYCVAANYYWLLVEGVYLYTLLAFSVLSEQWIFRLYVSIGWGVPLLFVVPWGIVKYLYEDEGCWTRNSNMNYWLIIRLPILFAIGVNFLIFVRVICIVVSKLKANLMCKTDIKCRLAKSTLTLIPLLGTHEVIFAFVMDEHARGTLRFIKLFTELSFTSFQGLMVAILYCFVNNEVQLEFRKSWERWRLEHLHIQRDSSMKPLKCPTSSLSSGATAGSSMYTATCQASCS
Outline: as §1

[7] = target: T7, pepsin (Sus scrofa, UniProt P00791); assay: Proteolytic resistance to pepsin (% remaining intact peptide, RP-HPLC AUC); format: in vitro ADME; details: pig, porcine pepsin, 37° C., pH 2.0, read-out: Percentage remaining intact peptide (AUC by RP-HPLC) upon incubation with pepsin
T7 construct: purchased Sigma P7012
T7 sequence (P00791 60-385): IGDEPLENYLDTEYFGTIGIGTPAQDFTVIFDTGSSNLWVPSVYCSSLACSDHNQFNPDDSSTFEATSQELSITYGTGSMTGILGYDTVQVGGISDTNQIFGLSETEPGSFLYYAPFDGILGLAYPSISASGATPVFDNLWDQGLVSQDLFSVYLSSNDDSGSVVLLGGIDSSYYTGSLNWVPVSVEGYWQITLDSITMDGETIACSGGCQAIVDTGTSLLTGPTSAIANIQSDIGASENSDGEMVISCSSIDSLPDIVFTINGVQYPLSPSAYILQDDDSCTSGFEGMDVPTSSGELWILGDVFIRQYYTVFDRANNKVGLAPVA
Procedure: Lyophilized porcine […] pepsin (Sigma: P7012) was reconstituted to afford a solution of 200 μg/mL (˜500 units/mL) in assay buffer (0.1 M HCl, pH 2.0) to give the enzyme stock solution. […] Ratio enzyme (units):peptide (μmoles)˜1:6. […] Ratio enzyme (units):peptide (μmoles)˜2:1.
Lyophilized porcine […] pepsin (Sigma: P7012) was reconstituted to 200 μg/mL (˜500 units/mL) in assay buffer (1.0 M HCl, pH 2.0) to give the enzyme stock solution.

EC50 ([1]; first determination (n1), read-out: Primary assay EC50 GIP-R (n1)): ≥ 31000 pM
EC50 ([1]; second determination (n2), read-out: Primary assay EC50 GIP-R (n2)): ≥ 31000 pM
EC50 ([2]; first determination (n1), read-out: Primary assay EC50 Gluc-R (n1)): ≥ 31000 pM
EC50 ([2]; second determination (n2), read-out: Primary assay EC50 Gluc-R (n2)): ≥ 31000 pM
Percentage remaining peptide (AUC at specified time-point by RP-HPLC) upon incubation with neprilysin, t = 0 [3]: 100%
EC50 ([4]; mono-lipidated peptides, mean of n1 and n2, read-out: INS1e assay EC50 Mean pM GLP-1R): 6 pM
EC50 ([4]; mono-lipidated peptides, replicate n1, read-out: INS1e assay EC50 GLP-1R n1): 5.1 pM
EC50 ([4]; mono-lipidated peptides, replicate n2, read-out: INS1e assay EC50 GLP-1R n2): 7.87 pM
SMILES: CC[C@H](C)[C@H](NC(=O)[C@](C)(Cc1ccccc1)NC(=O)[C@H](CCC(=O)O)NC(=O)[C@](C)(CCCCN)NC(=O)[C@H](C)NC(=O)[C@H](C)NC(=O)[C@H](CCC(=O)O)NC(=O)CNC(=O)[C@H](CCC(=O)O)NC(=O)[C@H](CC(C)C)NC(=O)[C@](C)(Cc1ccccc1)NC(=O)[C@H](CO)NC(=O)[C@](C)(CO)NC(=O)[C@@H](NC(=O)[C@H](CC(=O)O)NC(=O)[C@H](CO)NC(=O)[C@@H](NC(=O)[C@](C)(Cc1ccccc1)NC(=O)[C@H](CO)NC(=O)CNC(=O)[C@H](CCC(=O)O)NC(=O)C(C)(C)NC(=O)[C@@H](N)Cc1c[nH]cn1)[C@@H](C)O)C(C)C)C(=O)N[C@@H](C)C(=O)N[C@@](C)(Cc1ccccc1)C(=O)N[C@H](C(=O)N[C@H](C(=O)N[C@@](C)(CCCCN)C(=O)NCC(=O)NCC(N)=O)C(C)C)C(C)C [compound 17]

Percentage remaining peptide (AUC at specified time-point by RP-HPLC) upon incubation with neprilysin, t = 0 [3]: 100%
SMILES: CCCCCCCCCCCCCCCC(=O)NCCCC[C@H](NC(=O)CNC(=O)CNC(=O)[C@](C)(CCCCN)NC(=O)[C@@H](NC(=O)[C@@H](NC(=O)[C@](C)(Cc1ccccc1)NC(=O)[C@H](C)NC(=O)[C@@H](NC(=O)[C@](C)(Cc1ccccc1)NC(=O)[C@H](CCC(=O)O)NC(=O)[C@](C)(CCCCN)NC(=O)[C@H](C)NC(=O)[C@H](C)NC(=O)[C@H](CCC(N)=O)NC(=O)CNC(=O)[C@H](CCC(=O)O)NC(=O)[C@H](CC(C)C)NC(=O)[C@](C)(Cc1ccccc1)NC(=O)[C@H](CO)NC(=O)[C@H](CO)NC(=O)[C@@H](NC(=O)[C@H](CC(=O)O)NC(=O)[C@H](CO)NC(=O)[C@@H](NC(=O)[C@](C)(Cc1ccccc1)NC(=O)[C@H](CO)NC(=O)CNC(=O)[C@H](CCC(=O)O)NC(=O)C(C)(C)NC(=O)[C@@H](N)Cc1c[nH]cn1)[C@@H](C)O)C(C)C)[C@@H](C)CC)C(C)C)C(C)C)C(N)=O [compound 489] (H-H[Aib]EGS[αMeF]TSDVSS[αMeF]LEGQAA[αMeK]E[αMeF]IA[αMeF]VV[αMeK]GGK(Palmitoyl)-NH2)

remaining at 0.5 h ([3]; recombinant neprilysin, t = 30 min): 95.7%
remaining at 1 h ([3]; recombinant neprilysin, t = 1 hr): 92.8%
remaining at 4 h ([3]; recombinant neprilysin, t = 4 hr): 95.3%
remaining at 8 h ([3]; recombinant neprilysin, t = 8 hr): 89.7%
remaining at 24 h ([3]; recombinant neprilysin, t = 24 hr, read-out: Percentage remaining peptide (AUC at specified time-point by RP-HPLC) upon incubation with neprilysin, t = 24 hr): 89.3%
Percentage remaining peptide (AUC at specified time-point by RP-HPLC) upon incubation with neprilysin, t = 0 [3]: 100%
remaining at 0.5 h ([5]; t = 30 min): 96.8%
remaining at 1 h ([5]; t = 1 hr): 95.2%
remaining at 2 h ([5]; t = 2 hr): 89.9%
remaining at 4 h ([5]; t = 4 hr): 85.2%
remaining at 8 h ([5]; t = 8 hr): 82.9%
remaining at 24 h ([5]; t = 24 hr): 74.7%
EC50 ([6]; mean of n1 and n2, read-out: Primary assay EC50 Mean pM GLP-1R): 4.6 pM
EC50 ([6]; replicate n1, read-out: Primary assay EC50 GLP-1R n1): 4.01 pM
EC50 ([6]; replicate n2, read-out: Primary assay EC50 GLP-1R n2): 5.24 pM
remaining at 0.5 h ([7]; t = 30 min): 74.9%
remaining at 1 h ([7]; t = 1 hr): 55.8%
remaining at 2 h ([7]; t = 2 hr): 38.6%
remaining at 4 h ([7]; t = 4 hr): 22.4%
remaining at 8 h ([7]; t = 8 hr): 13.4%
remaining at 24 h ([7]; t = 24 hr): 0%
EC50 ([4]; bis-lipidated peptides, mean of n1 and n2, read-out: INS1e assay EC50 Mean pM GLP-1R): 212 pM
EC50 ([4]; bis-lipidated peptides, replicate n1, read-out: INS1e assay EC50 GLP-1R n1): 243 pM
EC50 ([4]; bis-lipidated peptides, replicate n2, read-out: INS1e assay EC50 GLP-1R n2): 181 pM
SMILES: CCCCCCCCCCCC(=O)N[C@@H](CCC(=O)NCCOCCOCC(=O)NCCOCCOCC(=O)NCCCC[C@H](NC(=O)[C@H](C)NC(=O)[C@@H](NC(=O)[C@H](Cc1ccccc1)NC(=O)[C@H](CCC(=O)O)NC(=O)[C@](C)(CCCCN)NC(=O)[C@H](C)NC(=O)[C@H](C)NC(=O)[C@H](CCC(=O)O)NC(=O)CNC(=O)[C@H](CCC(=O)O)NC(=O)[C@H](CCCCNC(=O)COCCOCCNC(=O)COCCOCCNC(=O)CC[C@H](NC(=O)CCCCCCCCCCC)C(=O)O)NC(=O)[C@H](Cc1ccc(O)cc1)NC(=O)[C@H](CO)NC(=O)[C@](C)(CO)NC(=O)[C@@H](NC(=O)[C@H](CC(=O)O)NC(=O)[C@H](CO)NC(=O)[C@@H](NC(=O)[C@](C)(Cc1ccccc1)NC(=O)[C@H](CO)NC(=O)CNC(=O)[C@H](CCC(=O)O)NC(=O)C(C)(C)NC(=O)[C@@H](N)Cc1c[nH]cn1)[C@@H](C)O)C(C)C)[C@@H](C)CC)C(=O)N[C@H](C(=O)N[C@H](C(=O)N[C@@H](CCC(=O)O)C(=O)NCC(=O)NCC(N)=O)C(C)C)C(C)C)C(=O)O [compound 269] (H-H[Aib]EGS[αMeF]TSDV[αMeS]SYK([AEEA-AEEA-γGlu-Lauroyl])EGEAA[αMeK]EFIAK([AEEA-AEEA-γGlu-Lauroyl])VVEGG-NH2)
